From patent US10894777B2, “TG2 inhibitor piperazine compounds and uses thereof” (UNIVERSITY OF OTTAWA, priority 2016, dated 2021)

Experiments:
A431 cells = experiment: Migration (scratch wound closure) assay, A431 cells; type: cell-based, human; conditions: 20 μM
Protocol: In (A), it is shown that A431-derived ECS cells have elevated TG2 and mesenchymal markers. A431 cells (40,000 cells/well) were grown in spheroid media in monolayer conditions or as non-attached spheroids (ECS cells) for 10 d. Cells were harvested and lysates prepared for immunoblot. In (B), A431 cells were electroporated with 3 μg of control- or TG2-siRNA and at 72 h extracts were prepared to assay TG2 and EMT marker level. In (C), A431-derived ECS cells were electroporated with 3 μg of the indicated siRNA and then grown as spheroids for 96 h. […] In (D), A431 cells (500,000 cells/well) were plated in monolayer culture in spheroid media in 100 mm dishes. […] Confluent monolayers were then scratched with a 10-μL pipette tip, rinsed, and width of the wound was monitored for 0-14 h.
In (A), A431 cells were grown as monolayers or in ultralow attachment plates (spheroids) in spheroid medium. […] Spheroid number was counted on days 1, 2 and 3. […] Spheroid number and trypan-blue viable cell number were determined at the indicated times following NC9 addition. […] A wound was created and ability of the cells to close the wound was monitored with time. […]
Migration assay. […] Images were collected, at 0-18 h after the scratch using the 10× objective, and the width of the opening was measured as a function of time as an index of cell migration potential.

TG2 = target: T1, TG2 (Homo sapiens, UniProt P21980); experiment: In vitro GTP binding assay after inhibition of hTG2 (BODIPY GTP-γ-S); conditions: inhibitor 2×KI, 30 min; 3 μM GTP-γ-S FL BODIPY
T1 sequence (P21980 1-687): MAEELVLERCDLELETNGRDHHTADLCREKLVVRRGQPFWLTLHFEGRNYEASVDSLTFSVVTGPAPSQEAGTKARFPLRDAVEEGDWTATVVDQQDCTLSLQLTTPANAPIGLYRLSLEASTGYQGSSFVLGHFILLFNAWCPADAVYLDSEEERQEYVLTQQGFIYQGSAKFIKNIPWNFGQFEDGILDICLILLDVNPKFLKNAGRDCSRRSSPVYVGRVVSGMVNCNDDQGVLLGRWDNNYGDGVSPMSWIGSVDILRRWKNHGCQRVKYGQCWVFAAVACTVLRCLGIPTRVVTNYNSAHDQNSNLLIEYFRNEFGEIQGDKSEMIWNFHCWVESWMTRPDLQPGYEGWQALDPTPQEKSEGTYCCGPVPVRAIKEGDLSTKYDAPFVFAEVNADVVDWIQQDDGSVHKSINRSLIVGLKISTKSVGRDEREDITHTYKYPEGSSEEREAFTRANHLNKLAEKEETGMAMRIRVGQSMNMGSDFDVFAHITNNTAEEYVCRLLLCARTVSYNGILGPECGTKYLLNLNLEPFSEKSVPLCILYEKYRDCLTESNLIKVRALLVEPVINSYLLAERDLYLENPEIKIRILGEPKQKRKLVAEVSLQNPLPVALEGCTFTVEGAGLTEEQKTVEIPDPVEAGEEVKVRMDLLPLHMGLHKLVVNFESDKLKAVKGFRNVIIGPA
Protocol: In vitro GTP binding assay. GTP binding was measured using a method similar to that reported previously (McEwen, D. P. et al., Anal. Biochem. (2001), 291 (1): 109-117). […] The buffer was then exchanged to 100 mM MOPS (pH=7.0), 1 mM EGTA and 5 mM MgCl2 to remove calcium using a 10-kDa molecular weight cut off membrane. The fluorescent GTP analog was then added to give a final concentration of 3.0 μM and fluorescence was then measured on a microplate reader after 10 minutes of incubation (Ex/Em: 490/520 nm).

Structure (SMILES)	cell migration / scratch wound closure (A431 cells)	GTP binding of hTG2 after incubation with inhibitor (TG2)
C=CC(=O)NCCCC[C@H](NC(=O)OCc1ccccc1)C(=O)NCCOCCOCCNS(=O)(=O)c1cccc2c(N(C)C)cccc12 [NC9]	reduced cell migration	–
C=CC(=O)NCCCC[C@H](NC(=O)OCc1ccccc1)C(=O)N1CCN(S(=O)(=O)c2cccc3c(N(C)C)cccc23)CC1 [VA4, (S)-benzyl(6-acrylamido-1-(4-((5-(dimethylamino)naphthalen-1-yl)sulfonyl)piperazin-1-yl)-1-oxohexan-2-yl)carbamate]	–	abolish GTP binding nearly completely
